First: CC[S+]([O-])c1c(C(C)=O)nn(-c2c(Cl)cc(C(F)(F)F)cc2Cl)c1N (centres unmarked)
Second: CC(=O)c1nn(-c2c(Cl)cc(C(F)(F)F)cc2Cl)c(N)c1[S+](C)[O-] (centres unmarked)
The melting point of the first is higher: 189 °C for the first, 166 °C for the second.

First: CNc1c([S+](C)[O-])c(C(C)=O)nn1-c1c(Cl)cc(C(F)(F)F)cc1Cl (centres unmarked)
Second: CCNc1c([S+](C)[O-])c(C(C)=O)nn1-c1c(Cl)cc(C(F)(F)F)cc1Cl (centres unmarked)
The melting point of the first is higher: 126 °C for the first, 123 °C for the second.

`CC(=O)c1nn(-c2c(Cl)cc(C(F)(F)F)cc2Cl)c(NSC(F)(F)F)c1[S+](C)[O-]` (centres unmarked) and `CCS(=O)(=O)CCNc1c([S+](C)[O-])c(C(C)=O)nn1-c1c(Cl)cc(C(F)(F)F)cc1Cl` (centres unmarked) cannot be ordered by melting point: 67 to 102 °C for the first, 102 °C for the second.

First: CSc1c(C(C)=O)nn(-c2c(Cl)cc(C(F)(F)F)cc2Cl)c1N
Second: CC(=O)c1nn(-c2c(Cl)cc(C(F)(F)F)cc2Br)c(N)c1[S+](C)[O-] (centres unmarked)
The melting point of the first is lower: 113 °C for the first, 153 °C for the second.

— US6403628B1 (dated 2002)
